Laboratory results taken from patent publication US12691182B2, “Maytansinoid derivatives, conjugates thereof, and methods of use” (priority 2016, dated 2026).

Tests used:
Format in all cases: cell-based
Ovcar3 (Muc16+) cells = test: In vitro cytotoxicity assay, Ovcar3 cells (CCK8 viability); conditions: naked payload, 3 days; for Ovcar3 % kill: % kill reported for the highest dose; for IC50: CCK8
Method: (§1) In this Example, the ability of various antibody-drug conjugates and naked payloads to kill antigen-expressing tumor cells in vitro was assessed.
(§2) Ovcar3 (Muc16+) cells were seeded in 96 well plates at 3000 cells per well in complete growth media and grown overnight. For cell viability curves, serially diluted conjugates or naked payloads were added to the cells at final concentrations ranging from 100 nM to 5 pM and incubated for 3 days. To measure viability, cells were incubated with CCK8 (Dojindo) for the final 2 hours and the absorbance at 450 nm (OD450) was determined on a Victor (Perkin Elmer). Background OD450 levels determined from digitonin (40 nM) treated cells were subtracted from all wells and viability is expressed as a percentage of the untreated controls. IC50 values were determined from a four-parameter logistic equation over a 10-point response curve (GraphPad Prism). […] All curves and IC50 values are corrected for payload equivalents. The plot of % Cell Viability vs. Log 10 [M]
(§3) All IC50s are expressed in nM concentration and % kill is reported for the highest dose. All curves and IC50 values are corrected for payload equivalents. The plot of % Cell Viability vs. Log 10 [M]

SKBR3 (Her2+) cells = test: In vitro cytotoxicity assay, SKBR3 cells (CCK8 viability); conditions: naked payload, SKBr-3 cells, 3 days; for SKBr-3 % kill: % kill reported for the highest dose; for IC50: CCK8
Method: as §1
as §2, with “SKBR3 (Her2+)” for “Ovcar3 (Muc16+)”, “8000” for “3000”
as §3

C4-2 (STEAP2+) cells = test: In vitro cytotoxicity assay, C4-2 cells (CellTiter-Glo viability); conditions: naked payload, 5 days; for IC50: CellTiter-Glo
Method: as §1
C4-2 (STEAP2+) cells were seeded in 96 well plates at 4000 cells per well in complete growth media and grown overnight. For cell viability curves, serially diluted conjugates or naked payloads were added to the cells at final concentrations ranging from 100 nM to 5 pM and incubated for 5 days. To measure viability, cells were incubated with CellTiter-Glo reagents for 5 minutes and luminescence was determined on a Victor plate reader (PerkinElmer). IC50 values were determined from a four-parameter logistic equation over a 10-point response curve (GraphPad Prism).
as §3

COc1cc2cc(c1Cl)N(C)C(=O)C[C@H](OC(=O)Nc1ccc(N)cc1Br)[C@]1(C)O[C@H]1[C@H](C)[C@@H]1C[C@@](O)(NC(=O)O1)[C@H](OC)/C=C/C=C(\C)C2 [Compound 30m, Maytan-3-O-carbamoyl-N-(2-bromo-4-amino)benzene]
Ovcar3 % kill (Ovcar3 (Muc16+) cells): ** (** indicates % kill greater than, or equal to, 85 and less than 90) | IC50 (Ovcar3 (Muc16+) cells): 1 to 10 pM | SKBr-3 % kill (SKBR3 (Her2+) cells): ***** (***** indicates % kill greater than, or equal to, 99) | IC50 (SKBR3 (Her2+) cells): 10 to 100 pM | C4-2 % kill (C4-2 (STEAP2+) cells; % kill reported for the highest dose): ***** (***** indicates % kill greater than, or equal to, 99) | IC50 (C4-2 (STEAP2+) cells): 10 to 100 pM

Maytan-3-O-carbamoyl-N-(2-methoxy-4-amino)benzene [Compound 30k]
Ovcar3 % kill (Ovcar3 (Muc16+) cells): *** (*** indicates % kill greater than, or equal to, 90 and less than 95) | IC50 (Ovcar3 (Muc16+) cells): 100 to 1000 pM | SKBr-3 % kill (SKBR3 (Her2+) cells): ***** (***** indicates % kill greater than, or equal to, 99) | IC50 (SKBR3 (Her2+) cells): 1000 to 10000 pM | IC50 (C4-2 (STEAP2+) cells): ≥ 10000 pM
